Source: patent US20210221785A1, “AMINO-PYRIMIDONYL DERIVATIVES, A PROCESS FOR THEIR PREPARATION AND PHARMACEUTICAL COMPOSITIONS CONTAINING THEM” (LES LABORATOIRES SERVIER, priority 2018, published 2021)

Target: T1, His-His-USP7 (aa208-560, |C315A|) (Homo sapiens, UniProt Q93009, C315A)
T1 construct: His-His-USP7 (aa208-560, |C315A|); His-His (N)
Test: Evaluation of the inhibition of USP7 by the Fluorescence Intensity (FLINT) readings
Assay type: biochemical
Settings: 0.25 nM His-His-USP7, compound incubated 60 minutes at 30° C., 500 nM Ubiquitin-Rhodamine-110 substrate; 50% reduction in kinetic rate
Experimental: USP7 activity was measured using Rhodamine-110 c-terminal labelled Ubiquitin as a substrate (UbiQ Bio). Incubation with USP7 results in the release of Rhodamine-110 leading to an increase in fluorescence which can be used in the continuous measurement of USP7 activity.
The USP7 reactions were performed in a 50 μL volume, in 384 well black solid low binding plates (Corning #3575). The reaction buffer consisted of 100 mM Bicine pH 8.0, 0.01% TritonX100, 1 mM TCEP, and 10% DMSO.
0.25 nM His-His-USP7 (aa208-560, |C315A|) was incubated with compound (final concentration 10% DMSO) for 60 minutes at 30° C. The reaction was then initiated by the addition of 500 nM Ubiquitin-Rhodamme-110 substrate and the plate read every 3 minutes for 21 minutes to measure the release of Rhodamine-110. Fluorescence Intensity (FLINT) readings were measured using a […] plate reader (Ex.485 nm, Em.535 nm).
The inhibition of increasing doses of compound was expressed as a percentage reduction in kinetic rate compared to the kinetic rates established between ‘DMSO only’ and ‘total inhibition’ controls (no USP7). The inhibitory concentrations that gave a 50% reduction in kinetic rate (IC50) were determined, from 11-point dose response cures, in XL-Fit using a 4-Parameter Logistic Model 205 (Sigmoidal Dose-Response Model).

T1 sequence (Q93009 208-560 C315A): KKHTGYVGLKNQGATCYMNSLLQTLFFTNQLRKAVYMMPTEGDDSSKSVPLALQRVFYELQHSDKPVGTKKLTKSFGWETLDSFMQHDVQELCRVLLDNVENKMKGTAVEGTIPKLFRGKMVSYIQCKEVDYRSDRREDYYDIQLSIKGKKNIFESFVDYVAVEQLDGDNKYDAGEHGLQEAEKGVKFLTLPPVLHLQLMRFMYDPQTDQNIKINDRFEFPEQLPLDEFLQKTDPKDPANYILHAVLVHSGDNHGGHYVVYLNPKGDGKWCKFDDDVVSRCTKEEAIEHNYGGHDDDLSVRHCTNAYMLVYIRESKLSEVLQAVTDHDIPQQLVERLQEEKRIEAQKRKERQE

Compound | IC50
N#Cc1ccc(Oc2ncn(CC3(O)CCN(C(=O)[C@@H]4CCC(F)(F)C[C@H]4c4ccccc4)CC3)c(=O)c2N)cc1Cl [Example 51, 4-{[5-amino-({1-[(1R,2R)-4,4difluoro-2-phenylcyclohexane-1-carbonyl]-4-hydroxypiperidin-4-yl}methyl)-6-oxo-1,6-dihydropyrimidin-4-yl]oxy}-2-chlorobenzonitrile] | 120 nM
N#Cc1ccc(Oc2ncn(CC3(O)CCN(C(=O)[C@@H]4CCC(F)(F)C[C@H]4c4ccccc4)CC3)c(=O)c2N)cc1F [Example 50, 4-{[5-amino-1-({1-[(1R,2R)-4,4-fluoro-2-phenylcyclohexane-1-carbonyl]-4-hydroxypiperidin-4-yl}methyl)-6-oxo-1,6-dihydropyrimidin-4-yl]oxy}-2-fluorobenzonitrile] | 116 nM
Nc1c(Oc2ccccc2)ncn(C[C@]2(O)CCN(C(=O)[C@@H]3CCC(F)(F)C[C@H]3c3ccccc3)CC2(F)F)c1=O [Example 10, 5-amino-3-[[(4R)-1-[(1R,2R)-4,4-difluoro-2-phenyl-cyclohexanecarbonyl]-3,3-difluoro-4-hydroxy-4-piperidyl]methyl]-6-phenoxy-pyrimidin-4-one] | 4320 nM
N#Cc1cccc(Oc2ncn(CC3(O)CCN(C(=O)[C@@H]4CCC(F)(F)C[C@H]4c4ccccc4)CC3)c(=O)c2N)c1 [Example 25, 3-{[5-amino-1-({1-[(1R,2R)-4,4-difluoro-2-phenylcyclohexane-1-carbonyl]-4-hydroxypiperidin-4-yl}methyl)-6-oxo-1,6-dihydropyrimidin-4-yl]oxy}benzonitrile] | 203 nM

Second part, the molecule after the results:

IC50 | Compound
46.6 nM | CC1(F)CC[C@@H](C(=O)N2CCC(O)(Cn3cnc(-c4ccc(F)cc4)c(N)c3=O)CC2)[C@H](c2ccccc2)C1 (relative stereo) [Example 127, rel-5-amino-3-[(1-{[(1R,2R)-4-fluoro-4-methyl-2-phenylcyclohexyl]carbonyl}-4-hydroxypiperidin-4-yl)methyl]-6-(4-fluorophenyl)pyrimidin-4-one]
67.7 nM | Nc1c(Oc2ccc(F)cc2)ncn(CC2(O)CCN(C(=O)[C@@H]3CC[C@@](F)(C#Cc4cc(F)ccn4)C[C@H]3c3ccccc3)CC2)c1=O [Example 158, 5-amino-3-({1-[(1R,2R,4S)-4-fluoro-4-[2-(4-fluoropyridin-2-yl)ethynyl]-2-phenylcyclohexanecarbonyl]-4-hydroxypiperidin-4-yl}methyl)-6-(4-fluorophenoxy)-3,4-dihydropyrimidin-4-one]
223 nM | Nc1c(Oc2ccc(F)cc2)ncn(CC2(O)CCN(C(=O)[C@@H]3CC[C@](O)(Cc4cnccn4)C[C@H]3c3ccccc3)CC2)c1=O (relative stereo) [Example 98, rel-5-amino-6-(4-fluorophenoxy)-3-[(4-hydroxy-1-{([(1R,2R,4R)-4-hydroxy-2-phenyl-4-(pyrazin-2-ylmethyl)cyclohexyl]carbonyl}piperidin-4-yl)methyl]pyrimidin-4-one]
403 nM | NC(=O)c1ccc(Oc2ncn(CC3(O)CCN(C(=O)[C@@H]4CCC(F)(F)C[C@H]4c4ccccc4)CC3)c(=O)c2N)cc1F [Example 81, 4-{[5-amino-1-({1-[(1R,2R)-4,4-difluoro-2-phenylcyclohexane-1-carbonyl]-4-hydroxypiperidin-4-yl}methyl)-6-oxo-1,6-dihydropyrimidin-4-yl]oxy}-2-fluorobenzamide]
152 nM | Nc1c(Oc2cnc3cc[nH]c3c2)ncn(CC2(O)CCN(C(=O)[C@@H]3CCC(F)(F)C[C@H]3c3ccccc3)CC2)c1=O [Example 106, 5-amino-3-([1-[(1R,2R)-4,4-difluoro-2-phenylcyclohexane-1-carbonyl]-4-hydroxypiperidin-4-yl]methyl)-6-[(1H-pyrrolo[3,2-b]pyridin-6-yl)oxy]pyrimidin-4(3H)-one]
611 nM | O=C([C@@H]1CCC(F)(F)C[C@H]1c1ccccc1)N1CCC(O)(Cn2cnc(Oc3ccc(F)cc3)c(NCc3ccccc3)c2=O)CC1 [Example 57, 5-(benzylamino)-3-({1-[(1R,2R)-4,4-difluoro-2-phenylcyclohexane-1-carbonyl]-4-hydroxypiperidin-4-yl}methyl)-6-(4-fluorophenoxy)pyrimidin-4(3H)-one]
